Measurements as given in ChEMBL document CHEMBL3885881, “DrugMatrix”.

Species: Rattus norvegicus
Test: DrugMatrix - Regimen: Daily Repeat
Assay type: toxicity, organism-based, Sprague-Dawley
Parameters: regimen Daily Repeat, gender Male, age 6-8 weeks
Details: in vivo, po, route oral GAVAGE, […]; for ABSOLUTE BASOPHIL / ABSOLUTE EOSINOPHIL / ABSOLUTE LYMPHOCYTE / ABSOLUTE MONOCYTE / ABSOLUTE SEGMENTED NEUTROPHIL / BASOPHIL / EOSINOPHIL / ERYTHROCYTE COUNT / HEMATOCRIT / HEMOGLOBIN / LEUKOCYTE COUNT / LYMPHOCYTE / MEAN CORPUSCULAR HEMOGLOBIN / MEAN CORPUSCULAR HEMOGLOBIN CONCENTRATION / MEAN CORPUSCULAR VOLUME / MONOCYTE / NEUTROPHIL / NUCLEATED RED BLOOD CELLS / PLATELET COUNT: tissue Blood; for ALANINE AMINOTRANSFERASE / ALBUMIN / ALKALINE PHOSPHATASE / ASPARTATE AMINOTRANSFERASE / BLOOD UREA NITROGEN / CARBON DIOXIDE / CHLORIDE / CHOLESTEROL / CREATINE PHOSPHOKINASE / CREATININE / GLUCOSE / LACTATE DEHYDROGENASE / LIPASE / PHOSPHORUS / POTASSIUM / SODIUM / TOTAL BILIRUBIN / URIC ACID / TOTAL PROTEIN: tissue Plasma
[1] = 0.3 mg/kg, 120 h, dose level Low, time 5 day
[2] = 150 mg/kg, 72 h, dose level High, time 3 day
[3] = 150 mg/kg, 120 h, dose level High, time 5 day

C[C@]12CC[C@@H]3c4ccc(O)cc4CC[C@H]3[C@@H]1CC[C@@H]2O [ESTRADIOL]
ABSOLUTE BASOPHIL [1]: 0 CELLS/uL | ABSOLUTE EOSINOPHIL [1]: 0 CELLS/uL | ABSOLUTE LYMPHOCYTE [1]: 8421.33 CELLS/uL | ABSOLUTE MONOCYTE [1]: 178.67 CELLS/uL | ABSOLUTE SEGMENTED NEUTROPHIL [1]: 333.33 CELLS/uL | BASOPHIL [1]: 0% | EOSINOPHIL [1]: 0% | ERYTHROCYTE COUNT [1]: 5.67 x10E6/uL | HEMATOCRIT [1]: 36.43% | HEMOGLOBIN [1]: 14.13 G/DL | LEUKOCYTE COUNT [1]: 8.93 x10E3/uL | LYMPHOCYTE [1]: 94.33% | MEAN CORPUSCULAR HEMOGLOBIN [1]: 24.93 pg | MEAN CORPUSCULAR HEMOGLOBIN CONCENTRATION [1]: 38.77 G/DL | MEAN CORPUSCULAR VOLUME [1]: 64.2 fL | MONOCYTE [1]: 2% | NEUTROPHIL [1]: 3.67% | NUCLEATED RED BLOOD CELLS [1]: 0 /100WBC | PLATELET COUNT [1]: 1136.67 x10E3/uL | ALANINE AMINOTRANSFERASE [1]: 62 u/L | ALBUMIN [1]: 4.23 G/DL | ALKALINE PHOSPHATASE [1]: 381.67 u/L | ASPARTATE AMINOTRANSFERASE [1]: 80.33 u/L | BLOOD UREA NITROGEN [1]: 11 mg/dL | CARBON DIOXIDE [1]: 31.67 mmol/L | CHLORIDE [1]: 97 MEQ/L | CHOLESTEROL [1]: 52.67 mg/dL | CREATINE PHOSPHOKINASE [1]: 324.67 u/L | CREATININE [1]: 0.15 mg/dL | GLUCOSE [1]: 162.67 mg/dL | LACTATE DEHYDROGENASE [1]: 166.67 u/L | LIPASE [1]: 10.33 u/L | PHOSPHORUS [1]: 9.63 mg/dL | POTASSIUM [1]: 5.76 MEQ/L | SODIUM [1]: 143 MEQ/L | TOTAL BILIRUBIN [1]: 0.2 mg/dL | URIC ACID [1]: 0.43 mg/dL | ABSOLUTE BASOPHIL [2]: 0 CELLS/uL | ABSOLUTE EOSINOPHIL [2]: 0 CELLS/uL | ABSOLUTE LYMPHOCYTE [2]: 6738.33 CELLS/uL | ABSOLUTE MONOCYTE [2]: 100.67 CELLS/uL | ABSOLUTE SEGMENTED NEUTROPHIL [2]: 527.67 CELLS/uL | BASOPHIL [2]: 0% | EOSINOPHIL [2]: 0% | ERYTHROCYTE COUNT [2]: 5.96 x10E6/uL | HEMATOCRIT [2]: 36.23% | HEMOGLOBIN [2]: 13.83 G/DL | LEUKOCYTE COUNT [2]: 7.37 x10E3/uL | LYMPHOCYTE [2]: 91.67% | MEAN CORPUSCULAR HEMOGLOBIN [2]: 23.37 pg | MEAN CORPUSCULAR HEMOGLOBIN CONCENTRATION [2]: 38.27 G/DL | MEAN CORPUSCULAR VOLUME [2]: 61 fL | MONOCYTE [2]: 1.33% | NEUTROPHIL [2]: 7% | NUCLEATED RED BLOOD CELLS [2]: 0 /100WBC | PLATELET COUNT [2]: 934 x10E3/uL | ALANINE AMINOTRANSFERASE [2]: 64.33 u/L | ALBUMIN [2]: 3.8 G/DL | ALKALINE PHOSPHATASE [2]: 760.67 u/L | ASPARTATE AMINOTRANSFERASE [2]: 90 u/L | BLOOD UREA NITROGEN [2]: 10 mg/dL | CARBON DIOXIDE [2]: 33 mmol/L | CHLORIDE [2]: 100 MEQ/L | CHOLESTEROL [2]: 22.67 mg/dL | CREATINE PHOSPHOKINASE [2]: 373.33 u/L | CREATININE [2]: 0.22 mg/dL | GLUCOSE [2]: 140.33 mg/dL | LACTATE DEHYDROGENASE [2]: 223.67 u/L | LIPASE [2]: 12.33 u/L | PHOSPHORUS [2]: 8.83 mg/dL | SODIUM [2]: 145.57 MEQ/L | TOTAL BILIRUBIN [2]: 0.23 mg/dL | TOTAL PROTEIN [2]: 5.87 G/DL | URIC ACID [2]: 0.3 mg/dL | ABSOLUTE BASOPHIL [3]: 0 CELLS/uL | ABSOLUTE EOSINOPHIL [3]: 0 CELLS/uL | ABSOLUTE LYMPHOCYTE [3]: 9738.33 CELLS/uL | ABSOLUTE MONOCYTE [3]: 202.33 CELLS/uL | ABSOLUTE SEGMENTED NEUTROPHIL [3]: 759.33 CELLS/uL | BASOPHIL [3]: 0% | EOSINOPHIL [3]: 0% | ERYTHROCYTE COUNT [3]: 6.23 x10E6/uL | HEMATOCRIT [3]: 39.2% | HEMOGLOBIN [3]: 14.6 G/DL | LEUKOCYTE COUNT [3]: 10.7 x10E3/uL | LYMPHOCYTE [3]: 91% | MEAN CORPUSCULAR HEMOGLOBIN [3]: 23.43 pg | MEAN CORPUSCULAR HEMOGLOBIN CONCENTRATION [3]: 37.27 G/DL | MEAN CORPUSCULAR VOLUME [3]: 62.93 fL | MONOCYTE [3]: 2% | NEUTROPHIL [3]: 7% | NUCLEATED RED BLOOD CELLS [3]: 0 /100WBC | PLATELET COUNT [3]: 1292.33 x10E3/uL | ALANINE AMINOTRANSFERASE [3]: 55.33 u/L | ALBUMIN [3]: 3.87 G/DL | ALKALINE PHOSPHATASE [3]: 654.67 u/L | ASPARTATE AMINOTRANSFERASE [3]: 67 u/L | BLOOD UREA NITROGEN [3]: 7.67 mg/dL | CARBON DIOXIDE [3]: 29.33 mmol/L | CHLORIDE [3]: 99.67 MEQ/L | CHOLESTEROL [3]: 14 mg/dL | CREATINE PHOSPHOKINASE [3]: 271.33 u/L | CREATININE [3]: 0.13 mg/dL | GLUCOSE [3]: 125.67 mg/dL | LACTATE DEHYDROGENASE [3]: 192.67 u/L | LIPASE [3]: 7.67 u/L | POTASSIUM [3]: 5.37 MEQ/L | SODIUM [3]: 145.23 MEQ/L | TOTAL BILIRUBIN [3]: 0.2 mg/dL | TOTAL PROTEIN [3]: 6.67 G/DL | URIC ACID [3]: 0.3 mg/dL
